Laboratory results published in patent publication US20200055839A1 (priority 2017, published 2020).

Tested on: NL-RLuc virus
Experiment: Inhibition of HIV replication (NL-RLuc virus, luciferase readout in MT-2 cells)
Type: cell-based
Settings: Human immunodeficiency virus 1, MT2, 120 h, MT-2 cells infected with NL-RLuc virus, 5 days of incubation, 10% FBS, at least 2 experiments
Method in brief: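 EC50 derived via median effect equation from at least 2 experiments, using luciferase expression as virus-growth readout. Replication-competent NL-RLuc reporter virus (nef partly replaced by Renilla luciferase) infected MT-2 cells with serial compound dilutions; 5-day incubation in RPMI 1640 plus 10% FBS.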

Point of comparison: `Cc1ccccc1COc1ccc(-c2cnc(C)c([C@H](OC(C)(C)C)C(=O)O)c2N2CCC(C)(C)CC2)nc1` [Example 346, (2S)-2-(tert-butoxy)-2-[4′-(4,4-dimethylpiperidin-1-yl)-6′-methyl-5-[(2-methylphenyl)methoxy]-[2,3′-bipyridine]-5′-yl]acetic acid], EC50 5 nM. Against it:
- Cc1nc(C(N)=O)c(-c2ccc(OCCc3ccc(F)cc3)cc2)c(N2CCC(C)(C)CC2)c1[C@H](OC(C)(C)C)C(=O)O [Example 13, (S)-2-(tert-Butoxy)-2-(6-carbamoyl-4-(4,4-dimethylpiperidin-1-yl)-5-(4-(4-fluorophenethoxy)phenyl)-2-methylpyridin-3-yl)acetic acid] — 2-fold higher, 10 nM
- Cc1ncc(-c2ccc3ccccc3c2)c(N2CCC(C)(C)CC2)c1[C@H](OC(C)(C)C)C(=O)O [Example 183, (2S)-2-(tert-Butoxy)-2-[4-(4,4-dimethylpiperidin-1-yl)-2-methyl-5-(naphthalen-2-yl)pyridin-3-yl]acetic acid] — within 1.5-fold, 6 nM
- COc1c(F)cc(-c2c(CN(C)C)nc(C)c([C@H](OC(C)(C)C)C(=O)O)c2N2CCC(C)(C)CC2)cc1F [Example 197, (2S)-2-(tert-Butoxy)-2-[5-(3,5-difluoro-4-methoxyphenyl)-6-[(dimethylamino)methyl]-4-(4,4-dimethylpiperidin-1-yl)-2-methylpyridin-3-yl]acetic acid] — 2.2-fold higher, 11 nM
- Cc1ncc(-c2ccccc2C#N)c(N2CCC(C)(C)CC2)c1[C@H](OC(C)(C)C)C(=O)O [Example 153, (2S)-2-(tert-Butoxy)-2-[5-(2-cyanophenyl)-4-(4,4-dimethylpiperidin-1-yl)-2-methylpyridin-3-yl]acetic acid] — 5.8-fold higher, 29 nM
- Cc1ncc(-c2ccccc2C(N)=O)c(N2CCC(C)(C)CC2)c1[C@H](OC(C)(C)C)C(=O)O [Example 154, (2S)-2-(tert-butoxy)-2-[5-(2-carbamoylphenyl)-4-(4,4-dimethylpiperidin-1-yl)-2-methylpyridin-3-yl]acetic acid] — 10-fold higher, 52 nM
- Cc1cccc(Cl)c1COc1ccc(-c2cnc(C)c([C@H](OC(C)(C)C)C(=O)O)c2N2CCC(C)(C)CC2)cn1 [Example 423, (S)-2-(tert-Butoxy)-2-(6′-((2-chloro-6-methylbenzyl)oxy)-4-(4,4-dimethylpiperidin-1-yl)-6-methyl-[3, 3′-bipyridin]-5-yl)acetic acid] — 1.6-fold higher, 8 nM
- Cc1ncc(-c2cnc(OCCCC(C)C)c(F)c2)c(N2CCC(C)(C)CC2)c1[C@H](OC(C)(C)C)C(=O)O [Example 394, (2S)-2-(tert-butoxy)-2-[4-(4,4-dimethylpiperidin-1-yl)-5′-fluoro-6-methyl-6′-[(4-methylpentyl)oxy]-[3,3′-bipyridine]-5-yl]acetic acid] — 1.7-fold lower, 3 nM
- COc1ccc(CCOc2ccc(-c3cnc(C)c([C@H](OC(C)(C)C)C(=O)O)c3N3CCC(C)(C)CC3)nc2)cc1 [Example 293, (2S)-2-(tert-butoxy)-2-[4′-(4,4-dimethylpiperidin-1-yl)-5-[2-(4-methoxyphenyl)ethoxy]-6′-methyl-[2,3′-bipyridine]-5′-yl]acetic acid] — 5-fold lower, 1 nM
- Cc1cc(OCC(C)C)ncc1-c1cnc(C)c([C@H](OC(C)(C)C)C(=O)O)c1N1CCC(C)(C)CC1 [Example 429, (2S)-2-tert-Butoxy-2-(4-(4,4-dimethylpiperidin-1-yl)-6′-isobutoxy-4′,6-dimethyl-3, 3′-bipyridin-5-yl)acetic acid] — 44-fold higher, 219 nM
- Cc1ncc(-c2ccc(OCCc3c(F)cc(F)cc3F)cn2)c(N2CCC(C)(C)CC2)c1[C@H](OC(C)(C)C)C(=O)O [Example 298, (2S)-2-(tert-butoxy)-2-[4′-(4,4-dimethylpiperidin-1-yl)-6′-methyl-5-[2-(2,4,6-trifluorophenyl)ethoxy]-[2,3′-bipyridine]-5′-yl]acetic acid] — 5-fold lower, 1 nM
- Cc1ncc(-c2ncc3ccccc3n2)c(N2CCC(C)(C)CC2)c1[C@H](OC(C)(C)C)C(=O)O [Example 267, (S)-2-(tert-Butoxy)-2-(4-(4,4-dimethylpiperidin-1-yl)-2-methyl-5-(quinazolin-2-yl)pyridin-3-yl)acetic acid] — 1.8-fold higher, 9 nM
- Cc1nc(Nc2ncccc2F)c(-c2ccc(OCCc3ccc(F)cc3)cc2)c(N2CCC(C)(C)CC2)c1[C@H](OC(C)(C)C)C(=O)O [Example 82, (S)-2-(tert-Butoxy)-2-(4-(4,4-dimethylpiperidin-1-yl)-5-(4-(4-fluorophenethoxy)phenyl)-6-((3-fluoropyridin-2-yl)amino)-2-methylpyridin-3-yl)acetic acid] — 2.5-fold lower, 2 nM
- CC1(C)CCN(c2c(-c3ccc(OCCc4ccc(F)cc4)cc3)c(CO)nc(Cl)c2[C@H](OC(C)(C)C)C(=O)O)CC1 [Example 212, (S)-2-(tert-Butoxy)-2-(2-chloro-4-(4,4-dimethylpiperidin-1-yl)-5-(4-(4-fluorophenethoxy)phenyl)-6-(hydroxymethyl)pyridin-3-yl)acetic acid] — 17-fold lower, 0.3 nM
- Cc1ncc(-c2cnc(OCCc3ccc(Cl)cc3)c(F)c2)c(N2CCC(C)(C)CC2)c1[C@H](OC(C)(C)C)C(=O)O [Example 395, (2S)-2-(tert-butoxy)-2-{6′-[2-(4-chlorophenyl)ethoxy]-4-(4,4-dimethylpiperidin-1-yl)-5′-fluoro-6-methyl-[3,3′-bipyridine]-5-yl}acetic acid] — 2.5-fold lower, 2 nM
- Cc1nc(N)c(-c2cnc(OCCc3ccc(F)cc3)c(F)c2)c(N2CCC(C)(C)CC2)c1[C@H](OC(C)(C)C)C(=O)O [Example 115, (S)-2-(2-Amino-4-(4,4-dimethylpiperidin-1-yl)-5′-fluoro-6′-(4-fluorophenethoxy)-6-methyl-[3, 3′-bipyridin]-5-yl)-2-(tert-butoxy)acetic acid] — 5-fold lower, 1 nM
- Cc1ncc(-c2ccc(O[C@@H](C)C(C)C)cn2)c(N2CCC(C)(C)CC2)c1[C@H](OC(C)(C)C)C(=O)O [Example 311, (2S)-2-(tert-butoxy)-2-[4′-(4,4-dimethylpiperidin-1-yl)-6′-methyl-5-{[(2S)-3-methylbutan-2-yl]oxy}-[2,3′-bipyridine]-5′-yl]acetic acid] — 5-fold lower, 1 nM
- CCC(C)(C)O[C@H](C(=O)O)c1c(C)ncc(-c2ccc(OCCc3ccc(F)cc3)cn2)c1N1CCC(C)(C)CC1 [Example 246, (S)-2-(4′-(4,4-Dimethylpiperidin-1-yl)-5-(4-fluorophenethoxy)-6′-methyl-[2, 3′-bipyridin]-5′-yl)-2-(tert-pentyloxy)acetic acid] — 12-fold lower, 0.4 nM
- Cc1ncc(-c2ccc(OCCc3cccc(F)c3)cn2)c(N2CCC(C)(C)CC2)c1[C@H](OC(C)(C)C)C(=O)O [Example 304, (2S)-2-(tert-butoxy)-2-[4′-(4,4-dimethylpiperidin-1-yl)-5-[2-(3-fluorophenyl)ethoxy]-6′-methyl-[2,3′-bipyridine]-5′-yl]acetic acid] — 10-fold lower, 0.5 nM
- Cc1ncc(-c2ccc(OCCc3ccc(Cl)cc3)cn2)c(N2CCC(C)(C)CC2)c1[C@H](OC(C)(C)C)C(=O)O [Example 309, (2S)-2-(tert-butoxy)-2-{5-[2-(4-chlorophenyl)ethoxy]-4′-(4,4-dimethylpiperidin-1-yl)-6′-methyl-[2,3′-bipyridine]-5′-yl}acetic acid] — 12-fold lower, 0.4 nM

Same assay, conditions: MT-2 cells infected with NL-RLuc virus, 5 days of incubation, 10% FBS, at least 2 experiments

`Cc1ncc(-c2cnc(NCCc3ccc(F)cc3)c(F)c2)c(N2CCC(C)(C)CC2)c1[C@H](OC(C)(C)C)C(=O)O` [Example 121, (S)-2-(tert-Butoxy)-2-(4-(4,4-dimethylpiperidin-1-yl)-5′-fluoro-6′-((4-fluorophenethyl)amino)-6-methyl-[3, 3′-bipyridin]-5-yl)acetic acid] gave an EC50 of 2 nM.
